From PubChem BioAssay (NCI)
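Abbreviation: GI50, concentration required for 50% inhibition of growth. At the TGI there is no net growth.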

What was measured:
Test in all cases: DTP human tumour cell line panel, 384-well format
CAKI-1 renal = system: CAKI-1 renal
U251 glioblastoma = system: U251 glioblastoma
NCI/ADR-RES ovarian = system: NCI/ADR-RES ovarian
LOX IMVI melanoma = system: LOX IMVI melanoma
NCI-H322M lung = system: NCI-H322M lung
HOP-92 NSCLC = system: HOP-92 NSCLC
EKVX NSCLC = system: EKVX NSCLC
SF-268 CNS = system: SF-268 CNS
CCRF-CEM leukemia = system: CCRF-CEM leukemia
UACC-62 melanoma = system: UACC-62 melanoma
MCF7 breast = system: MCF7 breast
MDA-MB-435 melanoma = system: MDA-MB-435 melanoma
OVCAR-5 ovarian = system: OVCAR-5 ovarian
M14 melanoma = system: M14 melanoma
MDA-MB-231 breast = system: MDA-MB-231 breast
SK-OV-3 ovarian = system: SK-OV-3 ovarian
OVCAR-3 ovarian = system: OVCAR-3 ovarian
SK-MEL-2 melanoma = system: SK-MEL-2 melanoma
A549 NSCLC = system: A549 NSCLC
HCT-116 colon = system: HCT-116 colon
NCI-H522 lung = system: NCI-H522 lung
MOLT-4 leukemia = system: MOLT-4 leukemia
HOP-62 NSCLC = system: HOP-62 NSCLC
OVCAR-8 ovarian = system: OVCAR-8 ovarian
HS 578T breast = system: HS 578T breast
SF-539 CNS = system: SF-539 CNS
TK-10 renal = system: TK-10 renal
T-47D breast = system: T-47D breast
MALME-3M melanoma = system: MALME-3M melanoma
NCI-H23 lung = system: NCI-H23 lung
ACHN renal = system: ACHN renal
OVCAR-4 ovarian = system: OVCAR-4 ovarian
MDA-MB-468 breast = system: MDA-MB-468 breast
UACC-257 melanoma = system: UACC-257 melanoma
RPMI-8226 leukemia = system: RPMI-8226 leukemia
SN12C renal = system: SN12C renal
786-0 renal = system: 786-0 renal
NCI-H226 lung = system: NCI-H226 lung
DU-145 prostate = system: DU-145 prostate
UO-31 renal = system: UO-31 renal
SF-295 CNS = system: SF-295 CNS
HL-60(TB) leukemia = system: HL-60(TB) leukemia
BT-549 breast = system: BT-549 breast
HT29 colon = system: HT29 colon
K-562 leukemia = system: K-562 leukemia
A498 renal = system: A498 renal
SNB-19 CNS = system: SNB-19 CNS
SK-MEL-28 melanoma = system: SK-MEL-28 melanoma
KM12 colon = system: KM12 colon
SNB-75 CNS = system: SNB-75 CNS
PC-3 prostate = system: PC-3 prostate
SW-620 colon = system: SW-620 colon
IGROV1 ovarian = system: IGROV1 ovarian
RXF 393 renal = system: RXF 393 renal
HCT-15 colon = system: HCT-15 colon

**Q.** What does the source list for `Cn1nnc2c(C(N)=O)ncn2c1=O`?
**A.** GI50 (CAKI-1 renal): > 100 µM; TGI (CAKI-1 renal): > 100 µM; GI50 (U251 glioblastoma): > 100 µM; TGI (U251 glioblastoma): > 100 µM; GI50 (NCI/ADR-RES ovarian): > 100 µM; TGI (NCI/ADR-RES ovarian): > 100 µM; GI50 (LOX IMVI melanoma): > 100 µM; TGI (LOX IMVI melanoma): > 100 µM; GI50 (NCI-H322M lung): > 100 µM; TGI (NCI-H322M lung): > 100 µM; GI50 (HOP-92 NSCLC): > 100 µM; TGI (HOP-92 NSCLC): > 100 µM; GI50 (EKVX NSCLC): > 100 µM; TGI (EKVX NSCLC): > 100 µM; GI50 (SF-268 CNS): > 100 µM; TGI (SF-268 CNS): > 100 µM; GI50 (CCRF-CEM leukemia): > 100 µM; TGI (CCRF-CEM leukemia): > 100 µM; GI50 (UACC-62 melanoma): > 100 µM; TGI (UACC-62 melanoma): > 100 µM; GI50 (MCF7 breast): > 100 µM; TGI (MCF7 breast): > 100 µM; GI50 (MDA-MB-435 melanoma): > 100 µM; TGI (MDA-MB-435 melanoma): > 100 µM; GI50 (OVCAR-5 ovarian): > 100 µM; TGI (OVCAR-5 ovarian): > 100 µM; GI50 (M14 melanoma): > 100 µM; TGI (M14 melanoma): > 100 µM; GI50 (MDA-MB-231 breast): > 100 µM; TGI (MDA-MB-231 breast): > 100 µM; GI50 (SK-OV-3 ovarian): > 100 µM; TGI (SK-OV-3 ovarian): > 100 µM; GI50 (OVCAR-3 ovarian): > 100 µM; TGI (OVCAR-3 ovarian): > 100 µM; GI50 (SK-MEL-2 melanoma): > 100 µM; TGI (SK-MEL-2 melanoma): > 100 µM; GI50 (A549 NSCLC): > 100 µM; TGI (A549 NSCLC): > 100 µM; GI50 (HCT-116 colon): > 100 µM; TGI (HCT-116 colon): > 100 µM; GI50 (NCI-H522 lung): > 100 µM; TGI (NCI-H522 lung): > 100 µM; GI50 (MOLT-4 leukemia): > 100 µM; TGI (MOLT-4 leukemia): > 100 µM; GI50 (HOP-62 NSCLC): > 100 µM; TGI (HOP-62 NSCLC): > 100 µM; GI50 (OVCAR-8 ovarian): > 100 µM; TGI (OVCAR-8 ovarian): > 100 µM; GI50 (HS 578T breast): > 100 µM; TGI (HS 578T breast): > 100 µM; GI50 (SF-539 CNS): > 100 µM; TGI (SF-539 CNS): > 100 µM; GI50 (TK-10 renal): > 100 µM; TGI (TK-10 renal): > 100 µM; GI50 (T-47D breast): > 100 µM; TGI (T-47D breast): > 100 µM; GI50 (MALME-3M melanoma): > 100 µM; TGI (MALME-3M melanoma): > 100 µM; GI50 (NCI-H23 lung): > 100 µM; TGI (NCI-H23 lung): > 100 µM; GI50 (ACHN renal): > 100 µM; TGI (ACHN renal): > 100 µM; GI50 (OVCAR-4 ovarian): > 100 µM; TGI (OVCAR-4 ovarian): > 100 µM; GI50 (MDA-MB-468 breast): > 100 µM; TGI (MDA-MB-468 breast): > 100 µM; GI50 (UACC-257 melanoma): > 100 µM; TGI (UACC-257 melanoma): > 100 µM; GI50 (RPMI-8226 leukemia): > 100 µM; TGI (RPMI-8226 leukemia): > 100 µM; GI50 (SN12C renal): > 100 µM; TGI (SN12C renal): > 100 µM; GI50 ([…]-0 renal): > 100 µM; TGI (786-0 renal): > 100 µM; GI50 (NCI-H226 lung): > 100 µM; TGI (NCI-H226 lung): > 100 µM; GI50 (DU-145 prostate): > 100 µM; TGI (DU-145 prostate): > 100 µM; GI50 (UO-31 renal): > 100 µM; TGI (UO-31 renal): > 100 µM; GI50 (SF-295 CNS): > 100 µM; TGI (SF-295 CNS): > 100 µM; GI50 (HL-60(TB) leukemia): > 100 µM; TGI (HL-60(TB) leukemia): > 100 µM; GI50 (BT-549 breast): > 100 µM; TGI (BT-549 breast): > 100 µM; GI50 (HT29 colon): > 100 µM; TGI (HT29 colon): > 100 µM; GI50 (K-562 leukemia): > 100 µM; TGI (K-562 leukemia): > 100 µM; GI50 (A498 renal): > 100 µM; TGI (A498 renal): > 100 µM; GI50 (SNB-19 CNS): > 100 µM; TGI (SNB-19 CNS): > 100 µM; GI50 (SK-MEL-28 melanoma): > 100 µM; TGI (SK-MEL-28 melanoma): > 100 µM; GI50 (KM12 colon): > 100 µM; TGI (KM12 colon): > 100 µM; GI50 (SNB-75 CNS): > 100 µM; TGI (SNB-75 CNS): > 100 µM; GI50 (PC-3 prostate): > 100 µM; TGI (PC-3 prostate): > 100 µM; GI50 (SW-620 colon): > 100 µM; TGI (SW-620 colon): > 100 µM; GI50 (IGROV1 ovarian): > 100 µM; TGI (IGROV1 ovarian): > 100 µM; GI50 (RXF 393 renal): > 100 µM; TGI (RXF 393 renal): > 100 µM; GI50 (HCT-15 colon): > 100 µM; TGI (HCT-15 colon): > 100 µM
